The source made the active and inactive calls.
Experiments:
[1] = cells; type: functional, cell-based; conditions: HEK-CNG
[2] = target: T1, Galanin receptor type 3 (Homo sapiens, UniProt O60755); assay: Fluorescence-based cell-based primary high throughput dose response assay to identify antagonists of the Galanin Receptor 3 (GalR3).; type: functional
T1 sequence (O60755 whole entry): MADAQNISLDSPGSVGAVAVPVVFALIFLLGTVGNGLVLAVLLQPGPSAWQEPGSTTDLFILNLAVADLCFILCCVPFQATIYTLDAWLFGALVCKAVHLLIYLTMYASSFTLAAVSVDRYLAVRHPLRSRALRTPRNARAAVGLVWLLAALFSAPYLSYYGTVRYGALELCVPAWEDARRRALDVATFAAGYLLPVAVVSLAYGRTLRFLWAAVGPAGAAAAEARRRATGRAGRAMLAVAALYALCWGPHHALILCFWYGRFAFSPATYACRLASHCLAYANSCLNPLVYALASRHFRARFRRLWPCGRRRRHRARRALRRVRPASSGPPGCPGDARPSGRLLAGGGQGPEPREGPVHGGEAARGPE

[3] = target: Cytochrome P450 2C9 (Homo sapiens, UniProt P11712)
Sequence of Cytochrome P450 2C9 (P11712 whole entry): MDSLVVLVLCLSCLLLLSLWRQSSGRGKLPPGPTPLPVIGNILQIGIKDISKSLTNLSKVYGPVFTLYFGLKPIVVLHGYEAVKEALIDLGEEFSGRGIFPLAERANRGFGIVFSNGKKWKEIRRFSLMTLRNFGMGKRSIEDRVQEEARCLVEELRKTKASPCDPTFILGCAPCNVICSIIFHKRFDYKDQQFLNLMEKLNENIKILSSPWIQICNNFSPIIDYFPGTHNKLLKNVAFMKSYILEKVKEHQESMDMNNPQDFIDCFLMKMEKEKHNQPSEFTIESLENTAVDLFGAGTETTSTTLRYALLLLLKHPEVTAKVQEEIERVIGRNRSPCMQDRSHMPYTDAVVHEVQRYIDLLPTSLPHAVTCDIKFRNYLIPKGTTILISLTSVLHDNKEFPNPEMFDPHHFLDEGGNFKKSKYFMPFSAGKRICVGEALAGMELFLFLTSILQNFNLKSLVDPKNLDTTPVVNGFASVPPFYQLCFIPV

[4] = target: T2, fMet-Leu-Phe receptor (Homo sapiens, UniProt P21462); assay: formyl peptide receptor binders – dose response (AID 519); type: functional
T2 sequence (P21462 whole entry): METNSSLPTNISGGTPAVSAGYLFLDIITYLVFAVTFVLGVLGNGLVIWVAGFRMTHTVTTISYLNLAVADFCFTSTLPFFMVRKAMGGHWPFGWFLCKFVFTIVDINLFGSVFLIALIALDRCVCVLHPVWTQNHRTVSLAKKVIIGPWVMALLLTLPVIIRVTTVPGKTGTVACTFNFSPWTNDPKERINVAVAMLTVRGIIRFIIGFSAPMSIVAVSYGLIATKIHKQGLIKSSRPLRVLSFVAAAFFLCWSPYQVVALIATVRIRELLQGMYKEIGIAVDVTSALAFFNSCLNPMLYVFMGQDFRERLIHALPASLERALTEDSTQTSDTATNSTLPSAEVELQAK

[5] = target: Cytochrome P450 2C19 (Homo sapiens, UniProt P33261); assay: Cytochrome panel assay with activity outcomes. Panel member name: p450-cyp2c19 Compounds with AC50 equal or less than 10 uM are considered active; type: functional; conditions: read-out: AC50
Sequence of Cytochrome P450 2C19 (P33261 whole entry): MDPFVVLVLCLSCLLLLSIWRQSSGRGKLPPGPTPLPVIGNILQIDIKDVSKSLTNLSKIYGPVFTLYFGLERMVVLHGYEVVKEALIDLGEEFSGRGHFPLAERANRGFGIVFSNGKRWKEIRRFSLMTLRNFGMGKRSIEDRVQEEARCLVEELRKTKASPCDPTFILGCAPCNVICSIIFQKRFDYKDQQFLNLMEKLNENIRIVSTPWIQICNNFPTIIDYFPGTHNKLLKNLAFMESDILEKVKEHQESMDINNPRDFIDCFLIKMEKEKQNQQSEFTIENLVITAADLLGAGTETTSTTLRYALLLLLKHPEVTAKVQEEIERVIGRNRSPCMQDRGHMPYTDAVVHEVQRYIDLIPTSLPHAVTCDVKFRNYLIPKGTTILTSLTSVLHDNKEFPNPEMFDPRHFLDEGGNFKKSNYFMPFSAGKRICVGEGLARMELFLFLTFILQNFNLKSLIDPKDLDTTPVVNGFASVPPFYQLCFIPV

[6] = target: Cytochrome P450 3A4 (Homo sapiens, UniProt P08684);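 note: CYP3A4 tested as one member of a cytochrome P450 panel screen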
Sequence of Cytochrome P450 3A4 (P08684 whole entry, the tested form may be a part): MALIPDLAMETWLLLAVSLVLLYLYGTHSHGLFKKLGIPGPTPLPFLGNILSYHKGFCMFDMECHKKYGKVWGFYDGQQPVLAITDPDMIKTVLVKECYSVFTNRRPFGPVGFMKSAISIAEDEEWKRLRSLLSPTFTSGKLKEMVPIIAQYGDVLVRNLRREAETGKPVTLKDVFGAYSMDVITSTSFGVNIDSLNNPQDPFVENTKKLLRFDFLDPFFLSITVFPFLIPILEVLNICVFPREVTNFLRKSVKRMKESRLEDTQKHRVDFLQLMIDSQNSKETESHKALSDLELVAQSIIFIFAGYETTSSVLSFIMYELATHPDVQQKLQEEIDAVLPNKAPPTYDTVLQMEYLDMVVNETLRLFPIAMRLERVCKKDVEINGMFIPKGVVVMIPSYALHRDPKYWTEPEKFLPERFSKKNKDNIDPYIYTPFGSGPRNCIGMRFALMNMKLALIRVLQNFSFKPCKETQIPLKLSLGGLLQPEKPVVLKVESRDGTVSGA

[7] = target: T3, Oxysterols receptor LXR-beta (Homo sapiens, UniProt P55055); assay: LXR agonists, Gal4 luciferase reporter, dose response, counter-screen for ssDAF-12 agonist project, cell-based, luminescence, HEK293, S. stercoralis campaign (AID 720737); type: functional; conditions: read-out: IC50 (the source's name)
T3 sequence (P55055 whole entry): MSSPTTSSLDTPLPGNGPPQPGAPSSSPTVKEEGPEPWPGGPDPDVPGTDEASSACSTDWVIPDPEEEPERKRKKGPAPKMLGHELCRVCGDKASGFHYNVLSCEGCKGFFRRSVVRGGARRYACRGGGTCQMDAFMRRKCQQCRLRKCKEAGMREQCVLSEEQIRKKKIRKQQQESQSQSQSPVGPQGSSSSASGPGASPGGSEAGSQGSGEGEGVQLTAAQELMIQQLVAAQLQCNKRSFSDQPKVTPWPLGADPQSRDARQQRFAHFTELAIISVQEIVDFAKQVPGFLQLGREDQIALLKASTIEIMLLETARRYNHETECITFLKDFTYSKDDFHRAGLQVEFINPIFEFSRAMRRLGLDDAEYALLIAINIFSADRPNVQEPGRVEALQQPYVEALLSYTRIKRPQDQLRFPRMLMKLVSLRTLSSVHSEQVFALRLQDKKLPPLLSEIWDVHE

[8] = Luminescence-based cell-based high throughput dose response assay to identify activators of the DAF-12 from the parasite S. stercoralis (ssDAF-12).; type: functional
[9] = A Cell Based Secondary Assay To Explore Cytotoxicity of Compounds that Sensitize Mycobacterium Tuberculosis to Beta-Lactam Antibiotics.; type: functional
[10] = IC50 of Artemis nuclease activity blockers – biochemical, fluorescence intensity, dose response (AID 720701); type: functional;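 note: Artemis endonuclease enzyme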
[11] = loss of viability in HepG2 cells – cell-based, CellTiter-Glo, cherry-picked, cytotoxicity control for Shn3 inhibitor project, dose response (AID 624134); type: functional
[12] = reduction of Shn3 3'UTR-driven luciferase in osteoblasts – cell-based, Clone20 osteoblasts, firefly luciferase, cherry-picked, dose response (AID 624132); type: functional;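 note: firefly luciferase luminescence from reporter carrying the Shn3 3'UTR in osteoblasts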
[13] = non-specific 3'UTR reporter inhibition in Clone20-Shn3RL – cell-based, Renilla luciferase, cherry-picked, counter-screen for Shn3 inhibitor project, dose response (AID 624133); type: functional
[14] = viability of PTEN-deleted HCT116 cells – cell-based, HCT116 PTEN knockout, dose response (AID 1047); type: functional;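 note: HCT116 colon tumor cells with PTEN knocked out; cells exposed to compound for 60 hours before readout; potency for loss of cell viability measured by luminescence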
[15] = viability of HCT116 lacking mutant beta-catenin – cell-based, human colon tumor, dose response (AID 1045); type: functional;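 note: HCT116 colon tumor cells with beta catenin knocked out; cells exposed to compound for 60 hours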
[16] = target: T4, COUP transcription factor 2 (Homo sapiens, UniProt P24468); assay: Luminescence-based cell-based high throughput dose response assay to identify inhibitors of COUP-TFII (NR2F2).; type: functional;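 note: HEK293 cells transiently cotransfected with COUP-TFII expression vector and reporter; luciferase reporter luminescence driven by COUP-TFII from the pX2-168 reporter plasmid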
T4 sequence (P24468 whole entry): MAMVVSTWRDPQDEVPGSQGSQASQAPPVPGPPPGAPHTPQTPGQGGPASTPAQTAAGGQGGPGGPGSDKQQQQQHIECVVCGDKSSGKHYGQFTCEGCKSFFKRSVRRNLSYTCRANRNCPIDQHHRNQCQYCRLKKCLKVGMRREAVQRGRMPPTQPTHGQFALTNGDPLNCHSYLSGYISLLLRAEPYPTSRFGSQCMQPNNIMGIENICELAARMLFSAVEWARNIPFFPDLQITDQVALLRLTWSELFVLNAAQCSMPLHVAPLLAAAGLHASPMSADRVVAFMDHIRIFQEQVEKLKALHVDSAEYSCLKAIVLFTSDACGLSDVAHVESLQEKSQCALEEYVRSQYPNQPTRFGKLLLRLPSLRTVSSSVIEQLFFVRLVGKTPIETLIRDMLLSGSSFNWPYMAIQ

[17] = target: Protein Wnt-3a (Mus musculus, UniProt P27467); assay: antagonism of Wnt3a pathway luciferase reporter – Wnt-LIGHT cells, luminescence, selectivity assay for Gli-SUFU antagonist project, dose response (AID 651570); type: functional; conditions: read-out: IC50_Mean;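 note: Wnt-LIGHT reporter cells stimulated with conditioned medium from Wnt3a-producing cells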
Sequence of Protein Wnt-3a (P27467 whole entry): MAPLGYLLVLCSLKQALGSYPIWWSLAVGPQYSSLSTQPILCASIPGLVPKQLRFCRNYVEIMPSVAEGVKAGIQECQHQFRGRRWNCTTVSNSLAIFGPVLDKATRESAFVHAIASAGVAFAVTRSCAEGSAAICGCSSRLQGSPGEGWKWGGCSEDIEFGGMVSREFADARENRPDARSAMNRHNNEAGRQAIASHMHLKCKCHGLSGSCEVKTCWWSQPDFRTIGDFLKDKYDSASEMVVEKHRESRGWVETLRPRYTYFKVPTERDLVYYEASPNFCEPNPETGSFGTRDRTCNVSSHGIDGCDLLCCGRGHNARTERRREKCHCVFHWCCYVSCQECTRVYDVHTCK

[18] = target: Mitogen-activated protein kinase 10 (Homo sapiens, UniProt P53779); assay: Dose response biochemical screening assay for inhibitors of c-Jun N-Terminal Kinase 3 (JNK3). [Related pubchem assays: 746 ]
Sequence of Mitogen-activated protein kinase 10 (P53779 whole entry): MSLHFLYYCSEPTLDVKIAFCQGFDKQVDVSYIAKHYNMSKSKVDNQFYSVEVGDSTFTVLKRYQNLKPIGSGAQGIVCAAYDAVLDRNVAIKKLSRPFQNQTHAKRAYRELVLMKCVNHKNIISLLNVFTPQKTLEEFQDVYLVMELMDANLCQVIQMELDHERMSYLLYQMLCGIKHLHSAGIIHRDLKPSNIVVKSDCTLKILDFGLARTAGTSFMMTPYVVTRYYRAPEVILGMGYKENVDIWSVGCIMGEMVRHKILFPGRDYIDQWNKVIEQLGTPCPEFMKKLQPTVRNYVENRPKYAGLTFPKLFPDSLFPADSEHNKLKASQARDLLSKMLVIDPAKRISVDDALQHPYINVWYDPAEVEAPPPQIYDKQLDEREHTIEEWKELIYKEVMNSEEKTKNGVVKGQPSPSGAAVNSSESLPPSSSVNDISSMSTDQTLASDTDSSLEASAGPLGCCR

[19] = target: T5, Trace amine-associated receptor 1 (Homo sapiens, UniProt Q96RJ0); assay: Fluorescence-based cell-based high throughput dose response assay to identify agonists of the human trace amine associated receptor 1 (TAAR1).; type: functional
T5 sequence (Q96RJ0 whole entry): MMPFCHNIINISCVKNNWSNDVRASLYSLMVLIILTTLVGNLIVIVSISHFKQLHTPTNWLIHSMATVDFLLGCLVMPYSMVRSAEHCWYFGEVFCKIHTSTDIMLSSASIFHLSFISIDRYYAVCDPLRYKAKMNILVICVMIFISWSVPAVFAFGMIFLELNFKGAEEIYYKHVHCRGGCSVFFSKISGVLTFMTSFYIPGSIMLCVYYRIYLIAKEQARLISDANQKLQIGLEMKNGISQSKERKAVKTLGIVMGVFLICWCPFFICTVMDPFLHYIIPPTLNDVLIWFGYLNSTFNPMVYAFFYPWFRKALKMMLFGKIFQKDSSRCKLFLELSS

[20] = cells; type: functional, cell-based
[21] = target: T5, Trace amine-associated receptor 1; assay: Counterscreen for agonists of the human trace amine associated receptor 1 (hTAAR1): Fluorescence-based cell-based high throughput dose response assay to identify hTAAR1 agonist that also desensitize TAAR1 receptor response.; type: functional
[22] = cells; type: functional, cell-based; remark: listed apart in the source
[23] = target: Albumin (Bos taurus, UniProt P02769); assay: Counterscreen for inhibitors of T-cell receptor (TCR)-CD3 interaction: Fluorescence-based biochemical high throughput dose response assay to identify inhibitors of T-cell receptor (TCR)-CD3 interaction using a TAMRA-labeled BSA probe.; type: functional
Sequence of Albumin (P02769 whole entry): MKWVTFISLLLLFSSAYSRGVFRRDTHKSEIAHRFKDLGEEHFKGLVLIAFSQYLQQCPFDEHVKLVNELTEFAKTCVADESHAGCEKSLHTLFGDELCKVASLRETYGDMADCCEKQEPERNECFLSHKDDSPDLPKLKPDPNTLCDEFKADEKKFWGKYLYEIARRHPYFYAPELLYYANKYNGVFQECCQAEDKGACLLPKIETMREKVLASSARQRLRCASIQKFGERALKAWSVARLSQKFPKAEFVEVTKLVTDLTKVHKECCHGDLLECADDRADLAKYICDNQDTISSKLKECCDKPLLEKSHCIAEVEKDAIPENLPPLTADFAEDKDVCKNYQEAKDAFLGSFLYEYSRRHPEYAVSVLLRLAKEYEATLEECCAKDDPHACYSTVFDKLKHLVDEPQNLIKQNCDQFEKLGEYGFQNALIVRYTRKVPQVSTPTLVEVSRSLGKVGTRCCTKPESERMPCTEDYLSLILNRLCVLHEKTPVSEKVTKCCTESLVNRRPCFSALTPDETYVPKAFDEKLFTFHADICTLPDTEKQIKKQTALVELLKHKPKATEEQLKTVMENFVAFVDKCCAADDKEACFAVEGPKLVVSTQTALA

[24] = reduced cellular PGC1a acetyl-lysine signal – cell-based, cherry-picked samples, dose response (AID 720514); type: functional;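 note: potency may reflect raised or lowered acetylation signal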
[25] = blockers of HIV-1 envelope-mediated cell-cell fusion – cherry-pick, dose response (AID 652057); type: functional, cell-based
[26] = blockers of HIV-1 ZM109 envelope-driven cell-cell fusion – HeLa effector, CEM target cells, luciferase, cherry-pick, dose response (AID 652058); type: functional, cell-based;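 note: luciferase signal from HIV-1 Env mediated cell-cell fusion of effector and target cells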
[27] = HIV-1 AD8 envelope cell-cell fusion blockers – cherry-pick, dose response (AID 652062); type: functional, cell-based;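 note: luciferase signal from cell-cell fusion driven by HIV-1 clade B AD8 Env; potency is for inhibitors of fusion seen as a drop in luminescence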
[28] = test system: HeLa; assay: viability loss in HeLa cells – cell-based, ATP luminescence, cherry-pick samples, cytotoxicity control, dose response (AID 687004); type: functional; conditions: Homo sapiens
[29] = test system: Vero; assay: viability loss in Vero cells – cell-based, plate reader, cherry-pick samples, cytotoxicity control, dose response (AID 687020); type: functional; conditions: Chlorocebus sabaeus

SMILES: N#Cc1nc(N2CCCC2)nc(N2CCCC2)n1
- EC50 [1]: > 29.9 µM (inactive)
- IC50 [2]: 1.81 µM (active)

SMILES: CCOc1ccccc1Oc1c(C)oc2cc(OC(=O)c3ccco3)ccc2c1=O
- AC50 [3]: inconclusive
- Ki [4]: 20.5 µM (inactive)
- AC50 [5]: 3.16 µM (inconclusive)
- AC50 [6]: 20 µM (inconclusive)

SMILES: CCNC1=NN=C(c2c[nH]c3ccccc23)CS1
- EC50 [7]: > 67.6 µM (inactive)
- IC50 [8]: > 67.6 µM (inactive)

SMILES: Cc1ccc(-c2cc(-c3ccccc3)no2)c(O)c1
- EC50 [7]: > 67.5 µM (inactive)
- IC50 [8]: > 67.5 µM (inactive)

SMILES: c1ccc(-c2ccc(C3=Nn4c(Cn5nnc6ccccc65)nnc4SC3)cc2)cc1
- CC50 [9]: > 40 µM (active)
- IC50 [10]: > 20 µM (inactive)

SMILES: CCCCOC(=O)c1[nH]c2c(c1C)C(=O)CC(c1cc(OC)c(OC)c(OC)c1)C2 (stereo not given)
- AC50 [11]: 62 µM (active)
- AC50 [12]: 1.35 µM (active)
- AC50 [13]: 3.74 µM (active)
- EC50 [14]: 79.5 µM (active)
- EC50 [15]: 58.8 µM (active)
- IC50 [16]: 7.91 µM (active)
- IC50 [17]: 8.48 µM (active)

SMILES: CCC(CCC(=O)Nc1cccc(C(=O)O)c1)C(=O)O (stereo not given)
- Ki [4]: > 66.7 µM (inactive)

SMILES: COCCN1Cc2cccc(C(=O)NCc3ccc4c(c3)OCO4)c2C1=O
- IC50 [18]: > 31 µM (not active)
- Ki [4]: > 66.7 µM (inactive)

SMILES: C#CCOC(=O)CCC(=O)NCCc1ccccc1
- EC50 [19]: 3.07 µM (active)
- IC50 [20]: > 29.9 µM (inactive)
- IC50 [21]: 1.66 µM (active)
- EC50 [22]: > 29.9 µM (inactive)

SMILES: Cc1nnc(SCC(=O)NCCC2=CCCCC2)nc1O
- EC50 [19]: 1.25 µM (active)
- IC50 [20]: > 29.9 µM (inactive)
- IC50 [21]: 7.22 µM (active)
- EC50 [22]: > 29.9 µM (inactive)

SMILES: Cc1ccc(S(=O)(=O)N2CCC(C(=O)NNC(=O)c3ccccc3O)CC2)cc1C
- IC50 [23]: > 94.1 µM (inactive)

SMILES: CC(NC1=NS(=O)(=O)c2ccccc21)C(=O)NCCCc1ccccc1 (stereo not given)
- AC50 [24]: 11.4 µM (active)

SMILES: O=C(CNC(=O)c1ccccc1F)NNC(=O)c1ccccc1O
- IC50 [23]: > 94.1 µM (inactive)

SMILES: C[C@H]1CN([C@@H](C)CO)C(=O)Cc2cc(NC(=O)Nc3ccccc3)ccc2O[C@H]1CN(C)S(=O)(=O)c1cccs1
- AC50 [25]: 1.36 µM (active)
- AC50 [26]: 1.55 µM (active)
- AC50 [27]: 8.52 µM (active)

SMILES: CCCNC(=O)C[C@@H]1CC[C@@H]2[C@H](COc3ccc(NC(=O)CCC)cc3C(=O)N2C)O1
- AC50 [28]: 9.9 µM (active)

SMILES: COC(=O)C1=C(C)N(Cc2ccc(Br)cc2)C(=S)NC1c1cccc(Br)c1 (stereo not given)
- AC50 [28]: 38.1 µM (active)

SMILES: Cc1c(C(=O)NCc2cccnc2)oc2ccc(S(=O)(=O)N3CC(C)CC(C)C3)cc12 (stereo not given)
- AC50 [29]: 32.4 µM (active)

SMILES: Cc1cccc(S(=O)(=O)N(C)C[C@@H]2OCc3cn(nn3)CCCC(=O)N([C@@H](C)CO)C[C@H]2C)c1
- AC50 [24]: 34.4 µM (active)

SMILES: C[C@H]1CN([C@@H](C)CO)C(=O)c2cccc(NC(=O)Nc3ccc(C(F)(F)F)cc3)c2O[C@H]1CN(C)C(=O)Nc1cccc2ccccc12
- AC50 [24]: 8.85 µM (active)

SMILES: COc1ccc(/C=N/CC2COc3ccccc3O2)cc1OC (stereo not given)
- EC50 [19]: 1.44 µM (active)
- IC50 [20]: > 29.9 µM (inactive)
- IC50 [21]: 18.9 µM (inactive)
- EC50 [22]: > 29.9 µM (inactive)

Source: ChEMBL document CHEMBL1201862, “PubChem BioAssay data set” (2004)
